Calls of active or inactive are those of the source. The rule behind the calls is not given here.
What was measured:
MDA-MB-231 [1] = experiment: Cytotoxicity against human MDA-MB-231 cells assessed as reduction in cell number at 5 to 10 uM after 24 to 72 hrs by light microscopic analysis; format: functional, cell-based
[2] = Antiproliferative activity against human CCRF-CEM cells after 48 hrs by sulforhodamine B assay; format: functional
[3] = Antiproliferative activity against human HL-60(TB) cells after 48 hrs by sulforhodamine B assay; format: functional; conditions: HL-60, 48 h
[4] = Antiproliferative activity against human K562 cells after 48 hrs by sulforhodamine B assay; format: functional; conditions: K562, 48 h
[5] = Antiproliferative activity against human MOLT4 cells after 48 hrs by sulforhodamine B assay; format: functional; conditions: MOLT-4, 48 h
[6] = Antiproliferative activity against human NCI-H226 cells after 48 hrs by sulforhodamine B assay; format: functional; conditions: NCI-H226, 48 h
[7] = Antiproliferative activity against human COLO205 cells after 48 hrs by sulforhodamine B assay; format: functional; conditions: COLO 205, 48 h
[8] = Antiproliferative activity against human HCT116 cells after 48 hrs by sulforhodamine B assay; format: functional; conditions: HCT-116, 48 h
[9] = Antiproliferative activity against human SF268 cells after 48 hrs by sulforhodamine B assay; format: functional; conditions: SF-268, 48 h
[10] = Antiproliferative activity against human SNB19 cells after 48 hrs by sulforhodamine B assay; format: functional; conditions: SNB-19, 48 h
[11] = Antiproliferative activity against human LOXIMVI cells after 48 hrs by sulforhodamine B assay; format: functional; conditions: LOX IMVI
[12] = Antiproliferative activity against human MDA-MB-435 cells after 48 hrs by sulforhodamine B assay; format: functional; conditions: MDA-MB-435, 48 h
[13] = Antiproliferative activity against human SK-MEL-2 cells after 48 hrs by sulforhodamine B assay; format: functional; conditions: SK-MEL-2, 48 h
[14] = Antiproliferative activity against human SK-MEL-28 cells after 48 hrs by sulforhodamine B assay; format: functional; conditions: SK-MEL-28, 48 h
[15] = Antiproliferative activity against human OVCAR4 cells after 48 hrs by sulforhodamine B assay; format: functional; conditions: OVCAR-4, 48 h
[16] = Antiproliferative activity against human OVCAR5 cells after 48 hrs by sulforhodamine B assay; format: functional; conditions: OVCAR-5, 48 h
[17] = Antiproliferative activity against human SKOV3 cells after 48 hrs by sulforhodamine B assay; format: functional; conditions: SK-OV-3, 48 h
[18] = Antiproliferative activity against human 786-0 cells after 48 hrs by sulforhodamine B assay; format: functional; conditions: 786-0, 48 h
[19] = Antiproliferative activity against human ACHN cells after 48 hrs by sulforhodamine B assay; format: functional
[20] = Antiproliferative activity against human UO31 cells after 48 hrs by sulforhodamine B assay; format: functional; conditions: UO-31, 48 h
[21] = Antiproliferative activity against human DU145 cells after 48 hrs by sulforhodamine B assay; format: functional; conditions: DU-145, 48 h
[22] = Antiproliferative activity against human MCF7 cells after 48 hrs by sulforhodamine B assay; format: functional; conditions: MCF7, 48 h
[23] = Cytotoxicity against human MDA-MB-231 cells assessed as inhibition of cell viability at 5 uM after 24 hrs by MTT assay relative to control; format: functional; conditions: MDA-MB-231, 24 h
[24] = Cytotoxicity against human MDA-MB-231 cells assessed as inhibition of cell viability at 10 uM after 24 hrs by MTT assay relative to control; format: functional; conditions: MDA-MB-231, 24 h
MDA-MB-231 [25] = experiment: Cytotoxicity against human MDA-MB-231 cells assessed as inhibition of cell viability at 5 to 10 uM up to 72 hrs by MTT assay; format: functional, cell-based
[26] = Cell cycle arrest in human MDA-MB-231 cells assessed as accumulation at subG0/G1 phase at 5 uM after 24 hrs by propidium iodide staining based flow cytometric analysis (reference value: 7.6%); format: functional
[27] = Cell cycle arrest in human MDA-MB-231 cells assessed as accumulation at G0/G1 phase at 5 uM after 24 hrs by propidium iodide staining based flow cytometric analysis (reference value: 66.5%); format: functional
[28] = Cell cycle arrest in human MDA-MB-231 cells assessed as accumulation at G2/M phase at 5 uM after 24 hrs by propidium iodide staining based flow cytometric analysis (reference value: 20.4%); format: functional
[29] = Cell cycle arrest in human MDA-MB-231 cells assessed as accumulation at subG0/G1 phase at 10 uM after 48 hrs by propidium iodide staining based flow cytometric analysis (reference value: 8.8%); format: functional
[30] = Cell cycle arrest in human MDA-MB-231 cells assessed as accumulation at G0/G1 phase at 5 uM after 72 hrs by propidium iodide staining based flow cytometric analysis (reference value: 69.3%); format: functional
[31] = Cell cycle arrest in human MDA-MB-231 cells assessed as accumulation at G2/M phase at 10 uM after 72 hrs by propidium iodide staining based flow cytometric analysis (reference value: 19.7%); format: functional
MDA-MB-231 [32] = experiment: Effect on cell cycle regulatory protein in human MDA-MB-231 cells assessed as cyclin B1 level at 5 uM after 24 hrs by Western blot analysis relative to control; format: functional
MDA-MB-231 [33] = experiment: Effect on cell cycle regulatory protein in human MDA-MB-231 cells assessed as cyclin B1 level at 10 uM after 24 hrs by Western blot analysis relative to control; format: functional
MDA-MB-231 [34] = experiment: Effect on cell cycle regulatory protein in human MDA-MB-231 cells assessed as cyclin B1 level at 5 uM after 48 hrs by Western blot analysis relative to control; format: functional
MDA-MB-231 [35] = experiment: Effect on cell cycle regulatory protein in human MDA-MB-231 cells assessed as p21 level at 10 uM after 48 hrs by Western blot analysis relative to control; format: functional
[36] = read-out: LC50 (the source's name)

With `C=C1c2c(C)nn(-c3ccc(C#CCO[C@@H]4O[C@H](CO)[C@@H](O)[C@H](O)[C@H]4O)cc3)c2N(C)C23CC1C1(C)c4c(C)nn(-c5ccc(C#CCO[C@@H]6O[C@H](CO)[C@@H](O)[C@H](O)[C@H]6O)cc5)c4N(C)C(C)(CC12)C3` (stereo partly specified) the Activity (MDA-MB-231 [1]) was “Active”, the GI50 [2] was 1.04 µM and the TGI [2] was 5.03 µM. The CC50 [2, 36] was over 100 µM, the GI50 [3] was 2.07 µM and the TGI [3] was 4.43 µM. It also gave a CC50 [3, 36] of 9.49 µM, a GI50 [4] of 1.89 µM and a TGI [4] of 6.75 µM. The CC50 [4, 36] was over 100 µM, the GI50 [5] was 1.28 µM and the TGI [5] was 3.88 µM. For the same compound, the CC50 [5, 36] was 100 µM, the GI50 [6] was 1.62 µM and the TGI [6] was 3.7 µM. The CC50 [6, 36] was 8.46 µM, the GI50 [7] was 1.47 µM and the TGI [7] was 2.88 µM. It also gave a CC50 [7, 36] of 5.63 µM, a GI50 [8] of 1.27 µM and a TGI [8] of 2.97 µM. For the same compound, the GI50 [9] was 1.75 µM, the TGI [9] was 3.57 µM and the CC50 [9, 36] was 7.27 µM. For the same compound, the GI50 [10] was 1.66 µM, the TGI [10] was 3.95 µM and the CC50 [10, 36] was 9.37 µM. For the same compound, the GI50 [11] was 1.37 µM, the TGI [11] was 2.79 µM and the CC50 [11, 36] was 5.69 µM. It also gave a GI50 [12] of 1.67 µM, a TGI [12] of 3.77 µM and a CC50 [12, 36] of 8.5 µM. The GI50 [13] was 1.76 µM, the TGI [13] was 3.39 µM and the CC50 [13, 36] was 6.55 µM. For the same compound, the GI50 [14] was 1.9 µM, the TGI [14] was 3.52 µM and the CC50 [14, 36] was 6.5 µM. It also gave a GI50 [15] of 1.68 µM, a TGI [15] of 9.94 µM and a CC50 [15, 36] of 31.8 µM. The GI50 [16] was 1.78 µM, the TGI [16] was 3.54 µM and the CC50 [16, 36] was 7.05 µM. For the same compound, the GI50 [17] was 1.72 µM, the TGI [17] was 3.11 µM and the CC50 [17, 36] was 5.61 µM. For the same compound, the GI50 [18] was 2.66 µM, the TGI [18] was 7.78 µM and the CC50 [18, 36] was 29.6 µM. The GI50 [19] was 2.42 µM, the TGI [19] was 10.6 µM and the CC50 [19, 36] was 32.5 µM. For the same compound, the GI50 [20] was 2.83 µM, the TGI [20] was 10.1 µM and the CC50 [20, 36] was 31.8 µM. For the same compound, the GI50 [21] was 1.97 µM, the TGI [21] was 5.16 µM and the CC50 [21, 36] was 17.3 µM. For the same compound, the GI50 [22] was 1.38 µM, the TGI [22] was 3.2 µM and the CC50 [22, 36] was 7.42 µM. For the same compound, the inhibition at 5 µM [23] was 65%, the inhibition at 10 µM [24] was 80% and the inhibition (MDA-MB-231 [25]) was “Active”. The Activity [26] was 7.1%, the Activity [27] was 56.9% and the Activity [28] was 24.4%. The Activity [29] was 4.6%, the Activity [30] was 74% and the Activity [31] was 31.1%. For the same compound, the “fold change (FC)” value (MDA-MB-231 [32]) was 0.9, the “fold change (FC)” value (MDA-MB-231 [33]) was 0.7 and the “fold change (FC)” value (MDA-MB-231 [34]) was 1. The “fold change (FC)” value (MDA-MB-231 [35]) was 2.

Reference: ChEMBL document CHEMBL3872201, “Synthesis and antiproliferative activity of a natural like glycoconjugate polycyclic compound” (2016)
